Reference: PubChem BioAssay (NCI)
Values joined by “and” are separate entries in the source; they are usually repeats but may differ in a detail not shown here. Identical values can stand only once.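 1) Cells in 96-well plates. 2) Compound, 48 h, 5 concentrations. 3) Linear interpolation between surrounding doses. 4) Unreached endpoint = highest concentration. GI50 marks 50% less growth. TGI: concentration producing complete growth inhibition.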

Key:
Experiment in all cases: inhibition of tumour cell growth, NCI panel, 48 h
K-562 leukemia = test system: K-562 leukemia
IGROV1 ovarian = test system: IGROV1 ovarian
SK-MEL-2 melanoma = test system: SK-MEL-2 melanoma
HCT-116 colon = test system: HCT-116 colon
LOX IMVI melanoma = test system: LOX IMVI melanoma
SK-MEL-28 melanoma = test system: SK-MEL-28 melanoma
OVCAR-5 ovarian = test system: OVCAR-5 ovarian
EKVX NSCLC = test system: EKVX NSCLC
NCI/ADR-RES ovarian = test system: NCI/ADR-RES ovarian
SR leukemia = test system: SR leukemia

SMILES: Cc1nc2ccccc2nc1CC(=O)C(=O)Nc1ccc(Cl)cc1Cl
- TGI (K-562 leukemia): > 100 µM
- TGI (IGROV1 ovarian): > 100 µM
- TGI (SK-MEL-2 melanoma): > 100 µM
- TGI (HCT-116 colon): > 100 µM
- TGI (LOX IMVI melanoma): > 100 µM
- TGI (SK-MEL-28 melanoma): > 100 µM
- TGI (OVCAR-5 ovarian): > 100 µM
- TGI (EKVX NSCLC): > 100 µM

SMILES: CN(C)CCn1c(=O)c2ccc(NCCCN(C)CCCNc3ccc4c(=O)n(CCN(C)C)c(=O)n5c6ccc(O)cc6c(=O)c3c45)c3c(=O)c4cc(O)ccc4n(c1=O)c23
- TGI (K-562 leukemia): 0.255 µM
- TGI (IGROV1 ovarian): 0.392 µM
- TGI (NCI/ADR-RES ovarian): > 46.3 µM
- TGI (SK-MEL-2 melanoma): 0.275 µM
- TGI (HCT-116 colon): 0.49 µM
- TGI (LOX IMVI melanoma): 0.0619 µM
- TGI (SR leukemia): 0.642 µM
- TGI (SK-MEL-28 melanoma): 1.19 µM
- TGI (OVCAR-5 ovarian): 1.15 µM
- TGI (EKVX NSCLC): 0.929 µM

SMILES: CC(C)Oc1cccc(N2C(n3ccnc3)=Nc3ccncc3S2(=O)=O)c1
- TGI (K-562 leukemia): 36.6 µM
- TGI (IGROV1 ovarian): 29.1 µM
- TGI (NCI/ADR-RES ovarian): 62 µM
- TGI (SK-MEL-2 melanoma): 26.7 µM
- TGI (HCT-116 colon): 26.8 µM
- TGI (LOX IMVI melanoma): 31.9 µM
- TGI (SR leukemia): 14.9 µM
- TGI (SK-MEL-28 melanoma): 33 µM
- TGI (OVCAR-5 ovarian): 27.6 µM
- TGI (EKVX NSCLC): 30.4 µM

SMILES: O=c1[nH]c(NCc2ccncc2)nc2nc[nH]c12
- TGI (K-562 leukemia): > 100 µM
- TGI (IGROV1 ovarian): > 100 µM
- TGI (NCI/ADR-RES ovarian): > 100 µM
- TGI (SK-MEL-2 melanoma): > 100 µM
- TGI (HCT-116 colon): > 100 µM
- TGI (LOX IMVI melanoma): > 100 µM
- TGI (OVCAR-5 ovarian): > 100 µM
- TGI (EKVX NSCLC): > 100 µM

SMILES: CC1(C)CC(=O)C2=C(C1)C(c1ccccc1Cl)C1C(=O)CC(C)(C)CC1(O)O2 (configuration not stated)
- TGI (K-562 leukemia): > 100 µM
- TGI (IGROV1 ovarian): > 100 µM
- TGI (NCI/ADR-RES ovarian): > 100 µM
- TGI (SK-MEL-2 melanoma): > 100 µM
- TGI (HCT-116 colon): > 100 µM
- TGI (LOX IMVI melanoma): > 100 µM
- TGI (SR leukemia): > 100 µM
- TGI (SK-MEL-28 melanoma): > 100 µM
- TGI (OVCAR-5 ovarian): > 100 µM
- TGI (EKVX NSCLC): > 100 µM

SMILES: Cc1cc([N+](=O)[O-])c(C)c2c1[nH]c1ccc(Cl)cc12
- TGI (K-562 leukemia): > 100 µM
- TGI (SK-MEL-2 melanoma): > 100 µM
- TGI (HCT-116 colon): > 100 µM
- TGI (LOX IMVI melanoma): > 100 µM
- TGI (SR leukemia): > 100 µM
- TGI (SK-MEL-28 melanoma): > 100 µM
- TGI (OVCAR-5 ovarian): > 100 µM
- TGI (EKVX NSCLC): > 100 µM

SMILES: COC(=O)[C@]1(C)CCC[C@@]2(C)C1CC[C@]13C=C(C(C)C)[C@H](CC21)CC3(Cl)C#N (some centres not stated)
- TGI (K-562 leukemia): > 100 µM
- TGI (IGROV1 ovarian): > 100 µM
- TGI (NCI/ADR-RES ovarian): > 100 µM
- TGI (HCT-116 colon): > 100 µM
- TGI (SR leukemia): > 100 µM
- TGI (SK-MEL-28 melanoma): > 100 µM
- TGI (OVCAR-5 ovarian): > 100 µM
- TGI (EKVX NSCLC): 77.3 µM

SMILES: Clc1cccc(-c2sc(-c3cccs3)cc2Cc2cccs2)c1
- TGI (K-562 leukemia): > 10 µM
- TGI (IGROV1 ovarian): > 10 µM
- TGI (NCI/ADR-RES ovarian): > 10 µM
- TGI (HCT-116 colon): > 10 µM
- TGI (LOX IMVI melanoma): > 10 µM
- TGI (SR leukemia): > 10 µM
- TGI (SK-MEL-28 melanoma): > 10 µM
- TGI (EKVX NSCLC): > 10 µM

SMILES: Cc1c2ccnc(C(N)=O)c2c(C)c2c1[nH]c1ccccc12
- GI50 (K-562 leukemia): 3.9 µM
- TGI (K-562 leukemia): 48.2 µM and > 100 µM
- GI50 (IGROV1 ovarian): 7.49 µM
- TGI (IGROV1 ovarian): 50 µM and 27.4 µM
- TGI (NCI/ADR-RES ovarian): 34 µM
- GI50 (SK-MEL-2 melanoma): 9.86 µM
- TGI (SK-MEL-2 melanoma): 37.5 µM and 44.1 µM
- TGI (HCT-116 colon): 17.4 µM
- TGI (LOX IMVI melanoma): 21.2 µM
- GI50 (SK-MEL-28 melanoma): 5.31 µM
- TGI (SK-MEL-28 melanoma): 19.4 µM and 20.1 µM
- GI50 (OVCAR-5 ovarian): 6.41 µM
- TGI (OVCAR-5 ovarian): 37.4 µM and 33.3 µM
- GI50 (EKVX NSCLC): 6.56 µM
- TGI (EKVX NSCLC): 35.3 µM and 46.8 µM

SMILES: CCOC(=O)C1C(c2ccc(Cl)cc2Cl)NC(c2ccc(C)cc2)C(C(=O)OC)S1(=O)=O (configuration not stated)
- TGI (K-562 leukemia): > 100 µM
- TGI (IGROV1 ovarian): > 100 µM
- TGI (SK-MEL-2 melanoma): > 100 µM
- TGI (LOX IMVI melanoma): > 100 µM
- TGI (SR leukemia): > 100 µM
- TGI (SK-MEL-28 melanoma): > 100 µM
- TGI (OVCAR-5 ovarian): > 100 µM
- TGI (EKVX NSCLC): > 100 µM

SMILES: C[C@@H]1CC[C@@]2(C)C(C(=O)O)=CCCC2[C@@]1(C)CC(=O)c1ccoc1 (some centres not stated)
- TGI (IGROV1 ovarian): > 25 µM
- TGI (NCI/ADR-RES ovarian): > 25 µM
- TGI (SK-MEL-2 melanoma): > 25 µM
- TGI (HCT-116 colon): > 25 µM
- TGI (LOX IMVI melanoma): > 25 µM
- TGI (SR leukemia): > 25 µM
- TGI (SK-MEL-28 melanoma): > 25 µM
- TGI (OVCAR-5 ovarian): > 25 µM
- TGI (EKVX NSCLC): > 25 µM
